Reference: patent publication US8703716B2, “Maternal sialic acid supplementation” (DSM IP Assets B.V., priority 2010, dated 2014)
Each block holds one compound with its values, some of them ahead of it.

Assays:
[1] = mice, dams and pups lacking the gene to produce Neu5Gc; cited from earlier work
[2] = system: thickness of MBP expression in white matter of p16 pup brain; test: Thickness of MBP expression in offspring brain slices by MBP immunohistochemistry and confocal laser microscopy; assay type: in vivo, Long-Evans rats; conditions: p16 pups
From the text: To determine the effects of supplementing maternal diets with sialic acid (n-acetylneuraminic acid; NANA) on the brain development of the offspring, forty (40) pregnant Long-Evans rats were placed on four (4) diets (10 dams per diet) that differed in their administration of sialic acid (Nacalai, San Diego, Calif.). All animals were started on the diets on the 4th day after being mated (gestational day 4). […]
(§1) FIGS. 3A and 3B show the maternal NANA supplementation protocol for experiments testing additional doses of NANA administered during gestation (FIG. 3A) and lactation (FIG. 3B).
To determine the effects of maternal NANA supplementation on the brain development of offspring, assessment of the CC and LOT was performed by taking thin slices of the p16 pup brain described in FIG. 2, staining the slices with MBP immunohistochemistry, and measuring the areas of interest with confocal laser microscopy. […] The locations of the LOT and regions associated with the anterior commissure (AC) are also illustrated in FIG. 7A. […]
(§2) To further assess the effects of maternal NANA supplementation during lactation on the brain development of offspring, assessment of the corpus callosum (CC) and lateral olfactory tract (LOT) was performed by taking thin slices of the p16 pup brain (LacDR p16) described in FIG. 3B, staining the slices with MBP immunohistochemistry, and quantitating the areas of interest with confocal laser microscopy as described in Example 2. Maternal supplementation with NANA at doses of 25 mg/kg/d, 50 mg/kg/d, 100 mg/kg/d and 200 mg/kg/d was tested.
as §2, with “motor pyramids” for “corpus callosum (CC)”, “medial lemniscus” for “lateral olfactory tract (LOT)”

hippocampal cultures = test: Ex vivo neurite extension (Map2a staining) in hippocampal cultures from offspring of NANA-supplemented dams; set-up: species or system Long-Evans rats; conditions: 6 days culture
From the text: (§3) To determine the effects of supplementing maternal diets with sialic acid (n-acetylneuraminic acid; NANA) on the brain development of the offspring, forty (40) pregnant Long-Evans rats were placed on four (4) diets (10 dams per diet) that differed in their administration of sialic acid (Nacalai, San Diego, Calif.). All animals were started on the diets on the 4th day after being mated (gestational day 4).
[…] These animals were then placed on a base diet after the offspring were born. Conversely, dams on the lactational diet (“fact”) were placed on the base diet during gestation but received NANA (200 mg/kg/d) through the diet during lactation. […]
To determine the effects of maternal NANA supplementation on the brain development of offspring, neurite extension was measured in hippocampal cultures made from p0 pups described in FIG. 2. […] The number of cells in each culture was assessed by staining with 4′,6-diamidino-2-phenylindole (DAPI).
The percent area of Map2a staining was determined by computerized counting of all Map2a positive pixels in each image (5 random fields for each of 9-10 cultures per group; 1 culture per animal). […] A two-tailed, unpaired students t-test was used to compare the two groups, and the test detected a significant difference between the supplemented group and the control group (**, p<0.01). […]

[3] = system: MBP expression in the cerebellum; test: MBP expression by western blot of offspring cerebellum after maternal NANA supplementation during lactation; assay type: in vivo, rat
Procedure: as §1
To further assess the effects of maternal NANA supplementation during lactation on the brain development of offspring, MBP expression was measured by western blot analysis of cerebellum that was harvested from pups at postnatal days 0, 8, and 16 described in FIG. 3B. As described in Example 2, the blots were probed with an antibody for MBP as described in Example 2 that recognizes the 18 kilodalton form (18 kD MBP) and 21 kilodalton form (21 kD MBP) and an antibody for β-actin as a protein loading control. Quantitation of MBP expression performed with densitometry of the bands in each lane, and each lane represented an individual animal as described in Example 2.
The graphs in FIGS. 12A and 12B represent the average intensity of MBP expression normalized by the corresponding actin signal in relative fluorescence units (Normalized R.F.U.).

[4] = NANA and Neu5Gc concentrations in cerebrospinal fluid after a single oral NANA dose; assay type: in vivo, rat; conditions: single oral dose NANA 200 mg/kg
Procedure: To assess whether NANA is bioavailable to the brain in its native form or whether NANA is processed on its way across the blood-brain barrier, the levels of NANA and one of its potential metabolites were measured in rat cerebrospinal fluid (CSF). The animals' diets were first cleared of NANA by placing them on NANA-free diets for one week. The animals were then given a single, oral dose of NANA (200 mg/kg), and the CSF of each animal was sampled at 0, 0.25, 1, 2, 4, and 6 hours after dosing. The concentrations of NANA and Neu5Gc in the CSF were then assessed by high-pressure liquid chromatography coupled with fluorescence detection methods and quantitation standards.

[5] = system: myelin basic protein (MBP) expression in the developing whole brain; test: MBP expression by western blot of whole brain lysates of offspring after maternal NANA supplementation; assay type: in vivo, Long-Evans rats
From the text: as §3
Dams placed on the gestational diet (“Gest”) received NANA (200 milligrams (mg) per kilogram (kg) body weight per day (d)) only during gestation. These animals were then placed on a base diet after the offspring were born. Conversely, dams on the lactational diet (“fact”) were placed on the base diet during gestation but received NANA (200 mg/kg/d) through the diet during lactation. Dams receiving NANA (200 mg/kg/d) through the diet throughout gestation and lactation were known as the “G+L” group.
After birth, the pups born to each diet group were crossfostered within their respective group to control for any differences in maternal care. The litters were then culled to 10 pups per dam to prevent nutritional differences caused by lack of access to the dam. The study was also designed to allow for the use of 5 pups at each endpoint (N=5) while keeping the litter size equal across all groups. Pups were taken at postnatal day 1 (p1) to determine potential differences between gestational supplementation and lactational supplementation of the maternal diet. […] Pups were also taken at p8 because it served as a midway timepoint and because the primary biomarker used cannot be detected until this day in rat development.
To determine the effects of maternal NANA supplementation on the brain development of offspring, MBP expression was measured by western blot analysis of whole brain lysates that were harvested from pups at postnatal days 0, 8, and 16 described in FIG. 2. […]
The graphs represent the average intensity of MBP expression normalized by the corresponding actin signal in relative fluorescence units (Normalized R.F.U.).

[6] = maternal NANA 25-200 mg/kg/d during gestation
[7] = maternal NANA 25-200 mg/kg/d during lactation, p<0.01 / p<0.001
[8] = maternal NANA during lactation, at certain doses tested, ANOVA p<0.001

SMILES: O=C(CO)N[C@H]1[C@H]([C@H](O)[C@H](O)CO)OC(O)(C(=O)O)C[C@@H]1O (some centres unmarked) [Neu5Gc, N-glycolylneuraminic acid]
transfer of Neu5Gc from fed dams to pups [1]: does not transfer

time at which CSF NANA returned to baseline values ([4]; rat CSF): ≤ 1 h
time of peak of native NANA in CSF after dosing ([4]; rat CSF): 15 min
blood-brain barrier crossing of native NANA ([4]; rat, from CSF levels): crossed the blood-brain barrier
SMILES: CC(=O)N[C@H]1[C@H]([C@H](O)[C@H](O)CO)OC(O)(C(=O)O)C[C@@H]1O (some centres unmarked) [NANA, N-acetylneuraminic acid]
thickness of MBP expression in the motor pyramids ([2]; maternal NANA 50 mg/kg/d during lactation, p=0.022): significant increase
maximal thickness of MBP expression in the lateral olfactory tract (LOT) ([2]; maternal NANA 200 mg/kg/d during gestation, lactation or gestation plus lactation): significant increases
thickness of MBP expression in the corpus callosum (CC) ([2]; maternal NANA 200 mg/kg/d during gestation, lactation or gestation plus lactation, ANOVA p<0.001): significant increases
thickness of MBP expression in the middle CC [2, 6]: did not appear to change
thickness of MBP expression in the midline CC decussation [2, 6]: did not appear to change
thickness of MBP expression in the frontal CC ([2]; maternal NANA 25-200 mg/kg/d during gestation, p<0.001): significant increases
thickness of MBP expression in the LOT ([2]; maternal NANA 25-200 mg/kg/d during gestation, p<0.05 / p<0.001): significant increases
thickness of MBP expression in the medial lemniscus ([2]; maternal NANA 25-200 mg/kg/d during gestation, p<0.05 / p<0.01): significant increases
thickness of MBP expression in the motor pyramids ([2]; maternal NANA 25-200 mg/kg/d during gestation, p<0.05 to p<0.001): significant increases
thickness of MBP expression in the medial lemniscus ([2]; maternal NANA 25-200 mg/kg/d during lactation): no significant changes
thickness of MBP expression in the LOT ([2]; maternal NANA 25-200 mg/kg/d during lactation, p<0.001): significant increases
thickness of MBP expression in the midline CC [2, 7]: significant increases
thickness of MBP expression in the rostral CC [2, 7]: significant increases
thickness of MBP expression in the midline CC decussation ([2]; maternal NANA 25-200 mg/kg/d during lactation, p<0.05 / p<0.001): significant increases
thickness of MBP expression in the motor pyramids ([2]; maternal NANA during lactation, the other doses tested (25, 100, 200 mg/kg/d)): no significant changes
percent area of Map2a staining per neuron (neurite extension) (hippocampal cultures; dams fed NANA 25, 50, 100, 200 mg/kg/d during gestation, p<0.01 / p<0.001): significantly greater
percent area of Map2a staining per neuron (neurite extension) (hippocampal cultures; p0 pups, dams fed NANA 200 mg/kg/d during gestation, p<0.01 vs control): significantly greater
total MBP (combined 18 kDa and 21 kDa) in cerebellum ([3]; maternal NANA 25 mg/kg/d during lactation, p<0.01): significant increase
total MBP (combined 18 kDa and 21 kDa) in cerebellum ([3]; maternal NANA 100 mg/kg/d during lactation, p<0.05): significant increase
total MBP (combined 18 kDa and 21 kDa) in cerebellum ([3]; maternal NANA 200 mg/kg/d during lactation, p<0.01): significant increase
expression of 18 kDa MBP normalized to actin in cerebellum [3, 8]: significant increase
expression of 21 kDa MBP normalized to actin in cerebellum [3, 8]: significant increase
expression of both MBP isoforms, lactational diet compared to NANA-deficient diet ([5]; NANA 200 mg/kg/d during lactation only, overall analysis and postnatal day 8, Tukey p<0.05): significantly increased
expression of 21 kDa MBP normalized to β-actin ([5]; whole brain of pups, maternal NANA 200 mg/kg/d in diet, one-way ANOVA p=0.012): significant increase
expression of 18 kDa MBP normalized to β-actin ([5]; whole brain of pups, maternal NANA 200 mg/kg/d in diet, one-way ANOVA p=0.037): significant increase
